Measured values published in PubChem BioAssay (NCI).
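Exposure lasted 48 hours, with cells grown in 96-well plates and compounds tested at five concentrations. TGI is the concentration that stops growth completely.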

Tests used:
Experiment in all cases: NCI-60 cell line screen, 48 h
[1] = test system: DU-145 prostate
[2] = test system: HCT-116 colon
[3] = test system: HCT-15 colon
[4] = test system: HL-60(TB) leukemia
[5] = test system: KM12 colon
[6] = test system: MDA-MB-435
[7] = test system: PC-3 prostate
[8] = test system: SW-620 colon
[9] = test system: RPMI-8226 leukemia

| SMILES | TGI [1] | TGI [2] | TGI [3] | TGI [4] | TGI [5] | TGI [6] | TGI [7] | TGI [8] | TGI [9] |
| --- | --- | --- | --- | --- | --- | --- | --- | --- | --- |
| CC(C)C(C/C=C1/CC(CO)(COC(=O)CC(C(C)C)C(C)C)OC1=O)C(C)C (stereo not drawn) | 26.3 µM | 35.1 µM | 30.3 µM | 11.7 µM | 21.6 µM | 16.9 µM | 20.2 µM | 18.1 µM |  |
| Cc1ccc(/C=C/C(=O)c2c([O-])on[n+]2-c2ccccc2)cc1 | 8.41 µM | 3.65 µM | 4.68 µM | 6.55 µM | 7.69 µM |  | 17.2 µM |  | 6.35 µM |
| O=C1c2ccccc2-c2nc(-c3cccnc3)cc3c2c1nc1ccccc13 | > 100 µM | > 100 µM | > 100 µM | > 100 µM |  | 34.7 µM | > 100 µM | > 100 µM | > 100 µM |
| C=C(C=O)c1c2c(nc3ccccc13)C(=O)c1ccccc1C2=O | 0.982 µM | 3.48 µM | 1.01 µM | 15.9 µM | 2.71 µM | > 100 µM | 10.6 µM |  |  |
| CC[N+]1(C)CCC(O)(c2ccc(Cl)cc2)C(C(=O)c2ccc(Cl)cc2)C1 (stereo not drawn) | 34.4 µM | 46.7 µM | 41.3 µM | > 100 µM | 31.7 µM | 40.6 µM | 33 µM |  |  |
| COc1cc(/C=C/C(C)=O)ccc1OP(=O)(O)O | > 100 µM | > 100 µM | > 100 µM |  | > 100 µM | > 100 µM | > 100 µM | > 100 µM | > 100 µM |
| CCCNC(=S)N/N=C/c1cccc(C)n1 |  | 29 µM | > 100 µM | 50.8 µM | > 100 µM | > 100 µM | > 100 µM |  | > 100 µM |
| CC1CCCC2=C1C(c1ccc(Cl)cc1)n1c(s/c(=C\c3ccc(Cl)cc3)c1=O)=N2 (stereo not drawn) | > 100 µM | > 100 µM | > 100 µM |  | > 100 µM | > 100 µM | > 100 µM | > 100 µM | > 100 µM |
| CCOP(=O)(Nc1ccc(-c2ccccc2)cc1)OCC | > 100 µM | > 100 µM | > 100 µM |  | > 100 µM | > 100 µM | > 100 µM |  | > 100 µM |
| COc1cc(N=NN(C)C)c(C(C)c2c3cc(OC)c(OC)cc3cc[n+]2C)cc1OC (stereo not drawn) | > 100 µM | > 100 µM | > 100 µM |  | 54.6 µM | > 100 µM | > 100 µM | > 100 µM | 70.4 µM |
| CC(=O)C1=C(N=[N+]=[N-])c2cccc3cccc(c23)C1=O |  | 30.8 µM | 32 µM |  | 44.7 µM | 48.5 µM | 53.2 µM | 55.1 µM | 42.8 µM |
| Cc1csc2nc(-c3ccc([N+](=O)[O-])cc3)c(/C=N/N=C(N)N)n12 | 4.3 µM | 3.76 µM | 1.68 µM | 4.49 µM | 3.49 µM | 3.16 µM | 3.25 µM |  | 4.12 µM |
| Cc1nc2c(o1)C(=O)c1ccccc1/C2=N/c1ccccn1 |  | 41.8 µM | 28.4 µM | 44.2 µM | 42.2 µM | 31.9 µM | > 100 µM | 31.6 µM | > 100 µM |
